Reference: patent US7235679B2, “Crystals of a vitamin D derivative and a method for the preparation thereof” (Chugai Seiyaku Kabushiki Kaisha, priority 1996, dated 2007)

Tests used:
[1] = Stability test of ED-71: purity measurement using normal phase HPLC; type: physicochemical; details: 265 nm
Procedure: (§1) Amorphous and crystalline ED-71 compounds were tested for stability at 10, 25 and […]. To estimate the stability, HPLC quantitative assay and absorbance and purity measurements were utilized. The purity was expressed as peak area ratio in percentage in HPLC (% P.A.R.). The test was carried out by using the following procedures:
(§2) About 2 mg portions of each of the amorphous and crystalline samples are precisely weighed into transparent 10 ml test tubes each having screw cap, individually.
(§3) The test tubes are purged with argon using a vacuum desiccator and a glove box. This purging procedure is not applied to the test tubes indicated as “1 M (air)” in the tables below.
(§4) The test tubes in groups are fixed in thermostatic baths which are respectively controlled at the above temperatures and allowed to stand in the dark. After one (1 W) or two (2 W) weeks or one month (1 M), the test tubes are removed from the baths and subjected to the following assay and measurements:
1 ml of the sample solution as prepared in “HPLC quantitative assay” above is dried in vacuo to remove the solvent (absolute ethanol). The residue is dissolved in 1 ml of methylene chloride. HPLC assay is carried out using 25 μl of this solution. • HPLC conditions used: • Column: YMC A-004SIL (4.6×300 mm) • Mobile phase: methylene chloride/methanol mixture (96/4) • Flow rate: 1.8 ml/min • Detection: at UV 265 nm.

[2] = Stability of ED-71 crystalline compound, overall conclusion; type: physicochemical; details: up to 2 weeks at 25° C. and 40° C.
Procedure: as §1, §2, §3, §4
The values of the HPLC quantitative assay and the purity measurement are averaged over two runs.

C=C1/C(=C\C=C2/CCC[C@@]3(C)C2CC[C@@H]3[C@H](C)CCCC(C)(C)O)C[C@@H](O)[C@@H](OCCCO)[C@@H]1O (stereo partly drawn) [Amor., 1α,25-dihydroxy-2β-(3-hydroxypropoxy)vitamin D3]
Purity Measurement Using Normal Phase HPLC, ED-71 peak ([1]; 10° C., 1 M (air), dark): 95.26 % P.A.R
Purity Measurement Using Normal Phase HPLC, Other peaks ([1]; 10° C., 1 M (air), dark): 2.42 % P.A.R
Purity Measurement Using Normal Phase HPLC, Pre Form peak ([1]; 10° C., 1 M (air), dark): 2.31 % P.A.R
Purity Measurement Using Normal Phase HPLC, ED-71 peak ([1]; 10° C., 1 M, argon, dark): 94.58 % P.A.R
Purity Measurement Using Normal Phase HPLC, Other peaks ([1]; 10° C., 1 M, argon, dark): 3.09 % P.A.R
Purity Measurement Using Normal Phase HPLC, Pre Form peak ([1]; 10° C., 1 M, argon, dark): 2.33 % P.A.R
Purity Measurement Using Normal Phase HPLC, ED-71 peak ([1]; 10° C., 2 W, argon, dark): 95.46 % P.A.R
Purity Measurement Using Normal Phase HPLC, Other peaks ([1]; 10° C., 2 W, argon, dark): 2.28 % P.A.R
Purity Measurement Using Normal Phase HPLC, Pre Form peak ([1]; 10° C., 2 W, argon, dark): 2.27 % P.A.R
Purity Measurement Using Normal Phase HPLC, ED-71 peak ([1]; 10° C., time 0): 96.06 % P.A.R
Purity Measurement Using Normal Phase HPLC, Other peaks ([1]; 10° C., time 0): 2.27 % P.A.R
Purity Measurement Using Normal Phase HPLC, Pre Form peak ([1]; 10° C., time 0): 1.67 % P.A.R
Purity Measurement Using Normal Phase HPLC, ED-71 peak ([1]; 25° C., 1 W, argon, dark): 95.97 % P.A.R
Purity Measurement Using Normal Phase HPLC, Other peaks ([1]; 25° C., 1 W, argon, dark): 2.14 % P.A.R
Purity Measurement Using Normal Phase HPLC, Pre Form peak ([1]; 25° C., 1 W, argon, dark): 1.88 % P.A.R
Purity Measurement Using Normal Phase HPLC, ED-71 peak ([1]; 25° C., 2 W, argon, dark): 94.74 % P.A.R
Purity Measurement Using Normal Phase HPLC, Other peaks ([1]; 25° C., 2 W, argon, dark): 3.01 % P.A.R
Purity Measurement Using Normal Phase HPLC, Pre Form peak ([1]; 25° C., 2 W, argon, dark): 2.25 % P.A.R
Purity Measurement Using Normal Phase HPLC, ED-71 peak ([1]; 25° C., time 0): 96.06 % P.A.R
Purity Measurement Using Normal Phase HPLC, Other peaks ([1]; 25° C., time 0): 2.27 % P.A.R
Purity Measurement Using Normal Phase HPLC, Pre Form peak ([1]; 25° C., time 0): 1.67 % P.A.R
Purity Measurement Using Normal Phase HPLC, ED-71 peak ([1]; 40° C., 1 W, argon, dark): 94.47 % P.A.R
Purity Measurement Using Normal Phase HPLC, Other peaks ([1]; 40° C., 1 W, argon, dark): 3.00 % P.A.R
Purity Measurement Using Normal Phase HPLC, Pre Form peak ([1]; 40° C., 1 W, argon, dark): 2.53 % P.A.R
Purity Measurement Using Normal Phase HPLC, ED-71 peak ([1]; 40° C., 2 W, argon, dark): 92.12 % P.A.R
Purity Measurement Using Normal Phase HPLC, Other peaks ([1]; 40° C., 2 W, argon, dark): 4.89 % P.A.R
Purity Measurement Using Normal Phase HPLC, Pre Form peak ([1]; 40° C., 2 W, argon, dark): 2.99 % P.A.R
Purity Measurement Using Normal Phase HPLC, ED-71 peak ([1]; 40° C., time 0): 96.06 % P.A.R
Purity Measurement Using Normal Phase HPLC, Other peaks ([1]; 40° C., time 0): 2.27 % P.A.R
Purity Measurement Using Normal Phase HPLC, Pre Form peak ([1]; 40° C., time 0): 1.67 % P.A.R

C=C1/C(=C\C=C2/CCC[C@]3(C)[C@@H]([C@H](C)CCCC(C)(C)O)CC[C@@H]23)C[C@@H](O)[C@@H](OCCCO)[C@@H]1O [Crys., 1α,25-dihydroxy-2β-(3-hydroxypropoxy)vitamin D3]
stability compared with the amorphous form [2]: higher stability
Purity Measurement Using Normal Phase HPLC, ED-71 peak ([1]; 10° C., 1 M (air), dark): 98.88 % P.A.R
Purity Measurement Using Normal Phase HPLC, Other peaks ([1]; 10° C., 1 M (air), dark): 0.46 % P.A.R
Purity Measurement Using Normal Phase HPLC, Pre Form peak ([1]; 10° C., 1 M (air), dark): 0.66 % P.A.R
Purity Measurement Using Normal Phase HPLC, ED-71 peak ([1]; 10° C., 1 M, argon, dark): 98.91 % P.A.R
Purity Measurement Using Normal Phase HPLC, Other peaks ([1]; 10° C., 1 M, argon, dark): 0.44 % P.A.R
Purity Measurement Using Normal Phase HPLC, Pre Form peak ([1]; 10° C., 1 M, argon, dark): 0.65 % P.A.R
Purity Measurement Using Normal Phase HPLC, ED-71 peak ([1]; 10° C., 2 W, argon, dark): 99.06 % P.A.R
Purity Measurement Using Normal Phase HPLC, Other peaks ([1]; 10° C., 2 W, argon, dark): 0.27 % P.A.R
Purity Measurement Using Normal Phase HPLC, Pre Form peak ([1]; 10° C., 2 W, argon, dark): 0.66 % P.A.R
Purity Measurement Using Normal Phase HPLC, ED-71 peak ([1]; 10° C., time 0): 99.15 % P.A.R
Purity Measurement Using Normal Phase HPLC, Other peaks ([1]; 10° C., time 0): 0.63 % P.A.R
Purity Measurement Using Normal Phase HPLC, Pre Form peak ([1]; 10° C., time 0): 0.21 % P.A.R
Purity Measurement Using Normal Phase HPLC, ED-71 peak ([1]; 25° C., 1 W, argon, dark): 99.56 % P.A.R
Purity Measurement Using Normal Phase HPLC, Other peaks ([1]; 25° C., 1 W, argon, dark): 0.30 % P.A.R
Purity Measurement Using Normal Phase HPLC, Pre Form peak ([1]; 25° C., 1 W, argon, dark): 0.14 % P.A.R
Purity Measurement Using Normal Phase HPLC, ED-71 peak ([1]; 25° C., 2 W, argon, dark): 98.95 % P.A.R
Purity Measurement Using Normal Phase HPLC, Other peaks ([1]; 25° C., 2 W, argon, dark): 0.38 % P.A.R
Purity Measurement Using Normal Phase HPLC, Pre Form peak ([1]; 25° C., 2 W, argon, dark): 0.67 % P.A.R
Purity Measurement Using Normal Phase HPLC, ED-71 peak ([1]; 25° C., time 0): 99.15 % P.A.R
Purity Measurement Using Normal Phase HPLC, Other peaks ([1]; 25° C., time 0): 0.63 % P.A.R
Purity Measurement Using Normal Phase HPLC, Pre Form peak ([1]; 25° C., time 0): 0.21 % P.A.R
Purity Measurement Using Normal Phase HPLC, ED-71 peak ([1]; 40° C., 1 W, argon, dark): 99.55 % P.A.R
Purity Measurement Using Normal Phase HPLC, Other peaks ([1]; 40° C., 1 W, argon, dark): 0.31 % P.A.R
Purity Measurement Using Normal Phase HPLC, Pre Form peak ([1]; 40° C., 1 W, argon, dark): 0.14 % P.A.R
Purity Measurement Using Normal Phase HPLC, ED-71 peak ([1]; 40° C., 2 W, argon, dark): 98.92 % P.A.R
Purity Measurement Using Normal Phase HPLC, Other peaks ([1]; 40° C., 2 W, argon, dark): 0.41 % P.A.R
Purity Measurement Using Normal Phase HPLC, Pre Form peak ([1]; 40° C., 2 W, argon, dark): 0.67 % P.A.R
Purity Measurement Using Normal Phase HPLC, ED-71 peak ([1]; 40° C., time 0): 99.15 % P.A.R
Purity Measurement Using Normal Phase HPLC, Other peaks ([1]; 40° C., time 0): 0.63 % P.A.R
Purity Measurement Using Normal Phase HPLC, Pre Form peak ([1]; 40° C., time 0): 0.21 % P.A.R
